Where two headings read alike, the source gives them in different places.
Columns and labels:
primary human AML cells [1] = experiment: Flow cytometry staining for differentiation (CD11b/CD14); format: cell-based; settings: 1 μM, 14 days
Method: Flow cytometry staining for differentiation: Primary AML cells were solubilized from the methocult in the CFU assays. 5e5 cells were stained and analyzed by flow cytometry as follows: Gating on CD45 positive hematopoietic cells; B, T and NK-cells were identified using CD19, CD3 and NK1.1 surface markers; differentiation in the myeloid population was assessed by gating on CD34/CD33 positive myeloid cells and staining for CD11 b and CD14.
FIGS. 5A-5E show representative flow cytometry data for induction of CD11b and CD14 positive cells in primary human AML cells following vehicle treatment, treatment with a representative disclosed compound, Cpd3, or treatment with a reference compound, brequinar (indicated as “BQR” in the figures) using methods as described herein below. Briefly, primary AML cells were treated with vehicle (DMSO), Cpd3 (1 μM) or brequinar (BQR, 1 μM) and plated in methylcellulose for 14 days. Cells were recovered from the methylcellulose and characterized by flow cytometry (gating on CD34/CD33 positive myeloid cells and staining for CD11b and CD14). FIGS. 5A-5C show the percentage of CD11b and CD14 positive cells within the live CD33/CD34 positive population for a representative “responder” sample. FIGS. 5D and 5E show collective data for eight primary AML samples. […]

MOLM-13 = experiment: MTS cell proliferation assay, MOLM-13; format: cell-based; settings: Homo sapiens, 96 hours
Method: (§1) Triplicate wells were set up for each condition.
(§2) The assays were carried out in a blinded fashion.

[2] = tested on: AML cell lines (MOLM13, MV4-11, OCI-AML3); experiment: Formal synergy analysis (Combenefit, BLISS) with MDM2 inhibitor AMG-232; format: cell-based; settings: Cpd3 0-10 μM with AMG-232 0-10 μM
Method: FIGS. 6D-6F show formal synergy analysis following treatment of different cell-lines (as indicated below) with a representative disclosed compound, Cpd3 (0-10 μM), in the presence or absence of an MDM2 inhibitor, AMG-232 (0-10 μM). The formal synergy analysis was carried out using the Combenefit analysis program (Cambridge Research UK, Cambridge Institute, University of Cambridge, United Kingdom; see also Di Veroli G Y, et al. Bioinformatics. 2016; 32:2866-2868). Combenefit analysis software uses the Loewe, Bliss, and HSA (Highest Single Agent) models to generate surface analyses with statistical significance and global metrics/scores. Data shown for the cell-lines in FIGS. 6D-6F were obtained using the BLISS analysis.

[3] = tested on: normal T-cells (CD4, CD8); experiment: CFSE proliferation assay; format: cell-based, human; settings: 0.3 and 1 μM, CD3/CD28 stimulation, 72 hours
Method: CFSE proliferation assays: Peripheral blood mononuclear cells from healthy adults were negatively selected to enrich for CD3, CD4, or CD8 T-cells. Cells were then stained with carboxyfluorescein succinimidyl ester (CSFE) and stimulated with plate bound anti-CD3 and soluble anti-CD28 antibodies. Proliferation was determined by CFSE dilution in the presence of vehicle or Cpd3 (0.3 and 1 μM doses) at 72 hours.
FIGS. 7A-7I show representative cell proliferation data for normal T-cells following treatment with vehicle or a representative disclosed compound, Cpd3 in the presence or absence of CD3/CD28 stimulation using a CSFE proliferation flow cytometry assay as described herein below. Briefly, T-cells were isolated from normal healthy donors, labeled with CSFE, and then either left unstimulated or co-stimulated with CD3/CD28 in the presence of vehicle or Cpd3 (0.3 and 1 μM doses) for 72 hours. Proliferation was determined by CSFE dilution in CD4 and CD8 T-cells. Data shown in FIGS. 7A-7H were obtained from one representative normal donor.

primary human AML cells [4] = experiment: MTS assay in primary AML cells on HS5 stromal cells; format: cell-based; settings: 96 hours
Method: as §1
Cpd3 efficacy was assessed in primary AML samples. Due to the poor in vitro viability of primary cells, these assays were performed in the presence of a support layer of human bone marrow stromal cells (HS5). Cells were treated with Cpd3 or BQR for 96 hours, followed by viability using an MTS assay. FIGS. 2A-2B show representative data for proliferation of primary human AML cells in the presence of a representative disclosed compound, Cpd3, compared to a reference compound, brequinar (BQR), using a MTS cell proliferation assay as described herein below. Briefly, primary AML cells were cultured in the presence human bone marrow stromal cells, and were treated with vehicle (DMSO), or varying doses of Cpd3 or brequinar sodium (BQR) for 96 hours. Cell growth was determined at 96 hours relative to the vehicle (DMSO) control using an MTS assay (N=6 primary AML samples). […] The IC50 values determined were variable, with an […] of about 0.2 μM in some samples. However, in other primary cell samples an IC50 could not be determined (FIG. 2A).

OCI-AML3 = experiment: MTS cell proliferation assay, OCI-AML3; format: cell-based; settings: Homo sapiens
Method: as §1, §2

DHODH = target: T1, DHODH (Homo sapiens, UniProt Q02127); experiment: DHODH enzymatic assay (DCIP reduction); format: biochemical
T1 construct: made in house
Method: DHODH Enzymatic Assay: DHODH activity was determined at 25° C. following the reduction of 2,6-dichloroindophenol sodium salt (DCIP) at 600 nm (ε=18 800 M^−1 cm^−1) on a spectrophotometer. The reaction medium used contained 50 mM Tris-HCl, pH 8.0, 0.1% Triton X-100, 0.1 mM LDHO, 0.025 mM CoQ1, and 0.06 mM DCIP. The reaction was started by addition of the enzyme. The inhibitory potency of the compounds was evaluated by measuring the initial velocity of the reaction either in the absence or in the presence of the compounds at the indicated concentrations. The DHODH enzyme used was the recombinant human enzyme prepared as previously described (Helene Munier-Lehmann, et al., J. Med. Chem. 2015, 58:860-877).

T1 sequence (Q02127 whole entry): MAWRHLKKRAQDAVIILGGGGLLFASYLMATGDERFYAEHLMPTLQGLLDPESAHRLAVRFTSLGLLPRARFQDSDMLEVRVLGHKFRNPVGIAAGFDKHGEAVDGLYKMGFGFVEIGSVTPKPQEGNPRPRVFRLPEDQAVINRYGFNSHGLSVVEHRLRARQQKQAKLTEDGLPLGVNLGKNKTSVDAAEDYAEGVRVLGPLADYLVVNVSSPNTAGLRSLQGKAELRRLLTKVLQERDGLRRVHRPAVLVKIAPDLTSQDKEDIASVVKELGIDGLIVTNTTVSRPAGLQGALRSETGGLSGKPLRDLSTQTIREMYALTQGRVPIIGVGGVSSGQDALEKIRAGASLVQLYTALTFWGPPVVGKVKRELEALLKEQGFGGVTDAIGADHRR

Question: With `CCOc1ccc(-c2ccc(-c3cc(C(=O)O)c4cc(F)ccc4n3)cc2)cc1` [Cpd3, 2-(4′-ethoxy-[1,1′-biphenyl]-4-yl)-6-fluoroquinoline-4-carboxylic acid] as the compound, how does the “induction of CD11b and CD14 positive cells” value (primary human AML cells [1]) read?
Answer: Its value is “induces CD11 b and CD14 in primary human AML cells”.

Question: And the IC50 (MOLM-13)?
Answer: The IC50 was 0.4 µM.

Question: And the “synergy with MDM2 inhibitor AMG-232” value [2]?
Answer: The value was “synergistic cell killing in AML cell lines”.

Question: And the T-cell proliferation [3]?
Answer: The T-cell proliferation was “inhibits T-cell proliferation”.

Question: And the “IC60 in primary AML samples” value (primary human AML cells [4]; HS5 stromal support, some samples)?
Answer: The value was “about 0.2 μM”.

Question: And the “growth of primary AML cells” value (primary human AML cells [4]; N=6 primary AML samples)?
Answer: The value was “decreases growth of primary AML cells comparable to the reference compound”.

Question: What about the IC50 (OCI-AML3; OCI-AML-3, 96 hour, Table 6, read-out: 96 hour IC50 (nM) in OCI-AML-3 cell line) of the same compound?
Answer: Its IC50 is 321 nM.

Question: And the IC50 (OCI-AML3; OCI-AML-3, 96 hours, read-out: IC50 (μM) at 96 hours, OCI-AML3)?
Answer: Its IC50 is 610 nM.

Question: And the “DHODH inhibition, % inhibition” value (DHODH; compound concentration not given)?
Answer: The value was 97%.

Question: What about the IC50 (DHODH; range in parentheses, read-out: DHODH inhibition, IC50) of the same compound?
Answer: The IC50 was 43 nM.
